Measured values as given in patent US20090035815A1, “Synthetic Gene for Enhanced Expression in E. Coli” (priority 2007, published 2009).

Tested on: PC-12 cells
Assay: In-vitro bioassay of recombinant Nesiritide: cGMP induction in PC-12 cells
Type: cell-based, Rat
Conditions: 30 mins
Excerpt: In all five batches of Nesiritide of the present invention, the cGMP induction in PC-12 cells the Nesiritide concentration (nM) is directly proportional to the concentration of Nesiritide used in culture. Culture format: 24-well plate; Cells used: PC-12 cells (Rat adrenal pheochromocytoma); no. of cells plated: 1.0×10^6 cells per well; Parameter measured: cGMP from cell lysate; Method used: Competitive Inhibition Assay (Acetylated format); Kit used: Correlate-EIA cGMP kit Assay Design Inc., USA.
Nesiritide is known to elicit its biological activity via a cGMP second messenger system in vitro and in vivo. PC-12 cells were plated in Plain RPMI medium in 24-well plate and equilibrated at 37° C., 5% CO2 incubator for 2 hrs. Prestimulation medium (RPMI+0.1% BSA+0.1 mM IBMX) was added to cells for 10 mins. It was followed by the addition of different concentrations of Nesiritide for 30 mins at 37° C., 5% CO2 incubator. The cells were lysed with 0.1M HCL for 20 mins followed by 5-7 freeze-thaw cycles. The cell lysates were centrifuged in microfuge at 10000 rpm for 10 mins at 4° C. Protein concentration of the supernatant was estimated by Bradford's method. The supernatant from cell lysates was assayed for cGMP concentration (FIG. 13) using a cGMP kit (Assay Design Inc). The cGMP from cell lysates was estimated from cGMP standard curve. ED50 value was calculated.

Row | Substance | cGMP levels (Nesiritide Conc 25 nM) [pmol/mL] | cGMP levels (Nesiritide Conc 50 nM) [pmol/mL] | cGMP levels (Nesiritide Conc 75 nM) [pmol/mL] | cGMP levels (Nesiritide Conc 100 nM) [pmol/mL] | cGMP levels (Nesiritide Conc 150 nM) [pmol/mL] | cGMP levels (Nesiritide Conc 200 nM) [pmol/mL]
1 | b-type natriuretic peptide (1-32) [Bachem, reference compound] | 0.121 ± 0.006 | 0.164 ± 0.05 | 0.327 ± 0.05 | 0.502 ± 0.05 | 0.793 ± 0.02 | 1.206 ± 0.08
2 | USV B. No 5406: batch of recombinant nesiritide of the present invention (Seq. ID NO:2) | 0.133 ± 0.004 | 0.161 ± 0.01 | 0.383 ± 0.02 | 0.444 ± 0.06 | 0.799 ± 0.08 | 1.214 ± 0.06
3 | USV B. No 5606: batch of recombinant nesiritide of the present invention (Seq. ID NO:2) | 0.119 ± 0.01 | 0.150 ± 0.03 | 0.321 | 0.475 ± 0.01 | 0.787 ± 0.07 | 1.006 ± 0.05
4 | USV B. No 5706: batch of recombinant nesiritide of the present invention (Seq. ID NO:2) | 0.114 ± 0.005 | 0.191 ± 0.01 | 0.305 ± 0.05 | 0.478 ± 0.06 | 0.756 ± 0.02 | 1.085 ± 0.06
